pIC50: −log10 of the molar value. Read-outs that look alike come from different tables or passages of the source.
Experiments:
[1] = system: mCYP3A11; experiment: ex vivo mCYP3A11 protein expression in mouse liver microsomes (western blot); conditions: daily oral 100 mg/kg body weight
Description: (§1) Eight-week-old male ICR (Imprinting Control Region) mice weighing 35–40 g were used to investigate the modulatory effects of atractylodin and β-eudesmol on mCYP1A2 and mCYP3A11. The study protocol was approved by the Ethics Committee for Animal Research at Thammasat University (protocol number 016/2020). All animals were obtained from Nomura Siam International Co., Ltd. (Bangkok, Thailand). The animals were acclimatized for one week before the experiments. A total of 36 mice were allocated to three groups (i) control group (3 mice), (ii) atractylodin-treated group, and (iii) β-eudesmol-treated group. For atractylodin and β-eudesmol-treated groups, animals were fed with 100 mg/kg body weight of each compound for 1, 7, 14, and 21 (3 mice for each dose). Experiments were performed under the guidelines for the care and use of laboratory animals in a controlled environment of 12 h dark/light cycle, temperature 22 ± 2 °C, and relative humidity 30–70% at the Thammasat University Animal Center. Animals were observed daily for changes in signs and symptoms by a veterinarian. Mice were allowed access to the food pellets and water ad libitum.
(§2) Mouse liver samples were cut into small pieces, and the liver microsomes were prepared as described previously. The concentrations of proteins in the microsomes were determined using Pierce™ BCA Protein Assay Kit. mCYP1A2 and mCYP3A11 activities were evaluated based on phenacetin O-deethylation and nifedipine oxidation activities, respectively. The incubation mixture of 500 µL consisted of microsomes, substrate ([…]), and NADPH. […] The final organic solvent concentration in the incubation mixture was not higher than 1%. Each experiment was repeated three times (duplicated each). Determination of the concentrations of metabolites of mCYP1A2 (paracetamol) and mCYP3A11 (dehydronifedipine) in the reaction was performed using HPLC Agilent 1260 Infinity II with mobile gradient phase between methanol and distilled water at an initial ratio of 20:80 (v:v) and UV detection (240 nm). Calibration curves for both CYP450 activities were created over a concentration range of 1–50 µM. Oxidized nifedipine concentrations were determined using HPLC as follows: UV detection at 235 nm with an isocratic mobile phase consisting of methanol and distilled water (70:30, v:v). […] In each analytical batch, quality control (QC) samples were run in duplicate at low, medium, and high concentrations. Acceptance criteria were four out of six QC analyses falling within 100 ± 15% of the nominal values.
(§3) The microsomal protein concentration for both mCYP1A2 and […] was 25 μg protein per lane. Proteins were denatured by combining equal volumes of liver microsomes with sample buffer (1:19 (v:v) of 2-mercaptoethanol and 2x Laemmle buffer) and heating at 100 °C for 5 min. Proteins were separated using 12% SDS-PAGE according to their size characteristics before being migrated to nitrocellulose blotting membranes.

[2] = system: mCYP1A2; experiment: ex vivo mCYP1A2 protein expression in mouse liver microsomes (western blot); conditions: daily oral 100 mg/kg body weight
Description: as §1, §2, §3

[3] = system: mCYP1A2 mRNA; experiment: ex vivo mCYP1A2 mRNA expression in mouse livers (real-time PCR); conditions: male ICR mice, daily oral 100 mg/kg body weight, vs control
Description: as §1
(§4) Total mRNA was extracted from mouse livers using Trizol according to the manufacturer’s instructions. The concentration of mRNA was quantified by a nanodrop spectrophotometer. The First-Strand cDNA Synthesis Kit was used to generate cDNA from RNA. The CFX96 Touch Real-Time PCR Detection System was used to determine the expressions of mCYP1A2, mCYP3A11, and β-actin genes using the iTaq Universal SYBR Green Supermix. The PCR condition and the delta-delta Ct calculation were according to the previously described article. All primers used in this study were synthesized by Gibthai Co. Ltd. (Bangkok, Thailand).

[4] = molecular target: rCYP3A4 (Homo sapiens, UniProt P08684); experiment: luminogenic P450-Glo CYP450 inhibition assay, rCYP3A4; conditions: three independent experiments
Description: (§5) The luminescent cytochrome P450 assay was used to determine CYP450-mediated (CYP1A2, 2C9, 2C19, 2D6, and 3A4) metabolism of atractylodin and β-eudesmol. The assay consisted of each recombinant human CYP450 (rCYP450), control membranes lacking P450 activity, a luminogenic CYP450 substrate (luciferin-ME substrate for rCYP1A2, luciferin-H substrate for rCYP2C9, luciferin-H EGE substrate for rCYP2C19, luciferin-ME EGE substrate for rCYP2D6, and luciferin-IPA substrate for rCYP3A4), KPO4 buffer, luciferin free water, NADPH regeneration system, and a luciferin detection reagent. The rCYP450 enzymes were generated from a baculovirus-infected insect cell expression system. The concentrations of the recombinant CYPs used were 0.5 (rCYP1A2 and rCYP2C9), 0.25 (rCYP2C19 and rCYP2D6) or 0.2 (rCYP3A4) pmol (0.5μL) per reaction. […] A luciferin product was produced after adding 25 µL of NADPH Regeneration System (solution A, solution B, and luciferin-free water) and incubated at 37 °C for 10 (rCYP1A2 and rCYP3A4), 20 (rCYP2C19 and rCYP2C9) or 30 (rCYP2D6) minutes. The reaction was stopped and converted to a luminescent signal after adding Luciferin Detection Reagent (50 µL) and incubated at 25 °C for 20 min. The luminescence signals obtained were determined using a Varioskan® Flash microplate reader (Waltham, MA, USA). The magnitude of luminescence in all of the samples represented CYP450 activity. […] All stock solutions were diluted with luciferin-free water until the final concentration of organic solvent was less than 0.25% (v/v) of the total reaction. The concentration range of atractylodin and β-eudesmol used were 2.74–686 µM and 2.25–562 µM, respectively. […] The concentration that inhibited the activity of each rCYP450 by 50% (IC50) was calculated using Calcusyn software (Cambridge, UK). Data are reported as the median (range) of the three independent experiments.

[5] = system: mCYP3A11 mRNA; experiment: ex vivo mCYP3A11 mRNA expression in mouse livers (real-time PCR); conditions: male ICR mice, daily oral 100 mg/kg body weight, vs control
Description: as §1, §4

[6] = molecular target: rCYP2D6 (Homo sapiens, UniProt P10635); experiment: luminogenic P450-Glo CYP450 inhibition assay, rCYP2D6; conditions: three independent experiments
Description: as §5

Sequence of rCYP2D6 (P10635 whole entry): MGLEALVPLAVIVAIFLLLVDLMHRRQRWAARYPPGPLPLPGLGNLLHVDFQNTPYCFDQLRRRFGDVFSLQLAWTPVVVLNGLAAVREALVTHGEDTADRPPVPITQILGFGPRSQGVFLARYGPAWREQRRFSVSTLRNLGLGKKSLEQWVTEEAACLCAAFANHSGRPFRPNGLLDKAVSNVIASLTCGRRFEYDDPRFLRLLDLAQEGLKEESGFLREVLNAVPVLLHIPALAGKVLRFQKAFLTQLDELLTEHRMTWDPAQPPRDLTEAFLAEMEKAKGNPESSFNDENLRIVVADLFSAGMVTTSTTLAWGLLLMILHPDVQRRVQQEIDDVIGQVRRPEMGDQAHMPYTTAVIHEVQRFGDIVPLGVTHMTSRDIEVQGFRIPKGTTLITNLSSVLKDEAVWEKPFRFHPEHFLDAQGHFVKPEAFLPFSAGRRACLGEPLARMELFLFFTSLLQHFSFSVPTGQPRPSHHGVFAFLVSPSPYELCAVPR
Sequence of rCYP3A4 (P08684 whole entry): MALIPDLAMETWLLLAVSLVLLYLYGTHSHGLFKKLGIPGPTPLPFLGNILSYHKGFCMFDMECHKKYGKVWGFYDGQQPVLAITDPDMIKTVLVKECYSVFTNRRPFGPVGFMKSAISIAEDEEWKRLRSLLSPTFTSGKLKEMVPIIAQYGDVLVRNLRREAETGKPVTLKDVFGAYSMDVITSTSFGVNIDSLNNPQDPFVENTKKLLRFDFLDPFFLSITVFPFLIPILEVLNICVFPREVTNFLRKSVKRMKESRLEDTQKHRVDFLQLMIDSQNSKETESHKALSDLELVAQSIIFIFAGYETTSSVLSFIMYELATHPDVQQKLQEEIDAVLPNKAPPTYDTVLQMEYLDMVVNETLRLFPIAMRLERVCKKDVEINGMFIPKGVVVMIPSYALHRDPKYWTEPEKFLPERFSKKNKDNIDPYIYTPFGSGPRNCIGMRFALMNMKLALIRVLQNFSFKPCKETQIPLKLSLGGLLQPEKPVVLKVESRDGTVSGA

## C=C1CCC[C@]2(C)CC[C@@H](C(C)(C)O)C[C@@H]12 [β-Eudesmol]
[1]; 1 day, control 1.73
  Protein expression ratio of mCYP3A11: 1.50
[1]; 7 days, control 1.57
  Protein expression ratio of mCYP3A11: 1.62
[1]; 14 days, control 2.31, listed as β-eudesmol, 100 mg/kg
  Protein expression ratio of mCYP3A11: significantly downregulated
[1]; 14 days, control 2.31, listed as β‐eudesmol, 100 mg/kg
  Protein expression ratio of mCYP3A11: 1.60
[1]; 21 days, control 2.18, listed as β-eudesmol, 100 mg/kg
  Protein expression ratio of mCYP3A11: significantly downregulated
[1]; 21 days, control 2.18, listed as β‐eudesmol, 100 mg/kg
  Protein expression ratio of mCYP3A11: 1.42
[2]; 1 day, control 1.5
  Protein expression ratio of mCYP1A2: 1.06
[2]; 7 days, control 1.88
  Protein expression ratio of mCYP1A2: 1.83
[2]; 14 days, control 2.42
  Protein expression ratio of mCYP1A2: 2.05
[2]; 21 days, control 2.20, listed as β-eudesmol, 100 mg/kg
  Protein expression ratio of mCYP1A2: significantly downregulated
[2]; 21 days, control 2.20, listed as β‐eudesmol, 100 mg/kg
  Protein expression ratio of mCYP1A2: 1.00
[3]; 1 day
  Fold-changes of mCYP1A2 mRNA levels: 2.63 fold
[3]; 7 days
  Fold-changes of mCYP1A2 mRNA levels: 1.44 fold
[3]; 14 days
  Fold-changes of mCYP1A2 mRNA levels: 1.37 fold
[3]; 21 days
  Fold-changes of mCYP1A2 mRNA levels: 0.91 fold
[4]; Median IC50 (Range) rCYP3A4, median (range)
  pIC50: 3.66
[5]; 1 day, 100 mg/kg
  Fold-changes of mCYP3A11 mRNA levels: 2.18 fold
[5]; 7 days, 100 mg/kg
  Fold-changes of mCYP3A11 mRNA levels: 1.5 fold
[5]; 7 days, listed as β‐eudesmol, 100 mg/kg
  Fold-changes of mCYP3A11 mRNA levels: 1.50 fold
[5]; 14 days
  Fold-changes of mCYP3A11 mRNA levels: 0.96 fold
[5]; 21 days
  Fold-changes of mCYP3A11 mRNA levels: 0.78 fold
[6]; Median IC50 (Range) rCYP2D6, median (range)
  pIC50: < 3.25

## C/C=C/C#CC#C/C=C/c1ccco1 [Atractylodin]
[1]; 1 day, control 1.73
  Protein expression ratio of mCYP3A11: 1.82
[1]; 7 days, control 1.57, 100 mg/kg
  Protein expression ratio of mCYP3A11: significantly downregulated
[1]; 7 days, control 1.57, listed as Atactylodin, 100 mg/kg
  Protein expression ratio of mCYP3A11: 1.26
[1]; 14 days, control 2.31, 100 mg/kg
  Protein expression ratio of mCYP3A11: significantly downregulated
[1]; 14 days, control 2.31, listed as Atactylodin, 100 mg/kg
  Protein expression ratio of mCYP3A11: 1.67
[1]; 21 days, control 2.18, 100 mg/kg
  Protein expression ratio of mCYP3A11: significantly downregulated
[1]; 21 days, control 2.18, listed as Atactylodin, 100 mg/kg
  Protein expression ratio of mCYP3A11: 1.41
[2]; 1 day, control 1.5
  Protein expression ratio of mCYP1A2: 1.39
[2]; 7 days, control 1.88
  Protein expression ratio of mCYP1A2: 1.55
[2]; 14 days, control 2.42
  Protein expression ratio of mCYP1A2: 1.77
[2]; 21 days, control 2.20, 100 mg/kg
  Protein expression ratio of mCYP1A2: significantly downregulated
[2]; 21 days, control 2.20, listed as Atactylodin, 100 mg/kg
  Protein expression ratio of mCYP1A2: 1.33
[3]; 1 day, 100 mg/kg
  Fold-changes of mCYP1A2 mRNA levels: 1.6 fold
[3]; 1 day, listed as Atactylodin, 100 mg/kg
  Fold-changes of mCYP1A2 mRNA levels: 1.60 fold
[3]; 7 days, 100 mg/kg
  Fold-changes of mCYP1A2 mRNA levels: 1.2 fold
[3]; 7 days, listed as Atactylodin, 100 mg/kg
  Fold-changes of mCYP1A2 mRNA levels: 1.20 fold
[3]; 14 days
  Fold-changes of mCYP1A2 mRNA levels: 0.89 fold
[3]; 21 days
  Fold-changes of mCYP1A2 mRNA levels: 0.71 fold
[4]; median (range)
  Median IC50 (Range) rCYP3A4: >125 µg/mL
[4]; read-out: Median IC50 (Range) rCYP3A4, median (range)
  pIC50: < 3.16
[5]; 1 day
  Fold-changes of mCYP3A11 mRNA levels: 1.72 fold
[5]; 7 days
  Fold-changes of mCYP3A11 mRNA levels: 1.3 fold
[5]; 14 days
  Fold-changes of mCYP3A11 mRNA levels: 0.87 fold
[5]; 21 days
  Fold-changes of mCYP3A11 mRNA levels: 0.62 fold
[6]; median (range)
  Median IC50 (Range) rCYP2D6: >125 µg/mL
[6]; read-out: Median IC50 (Range) rCYP2D6, median (range)
  pIC50: < 3.16

— paper PMC10095747, “Modulatory Effects of Atractylodin and β-Eudesmol on Human Cytochrome P450 Enzymes: Potential Drug-Drug Interactions” (Molecules, 2023)
